This is an account of results in publication PMC6264335, “Synthesis of Quinolin-2-one Alkaloid Derivatives and Their Inhibitory Activities against HIV-1 Reverse Transcriptase” (Molecules, 2011).

As a reminder, the IC50 is the concentration that gives 50% inhibition.

Test [1] addresses HIV-1 reverse transcriptase (RT). On the set-up: method as in PMID 8778237. The following applies: cited from earlier work.
The target of the next test is recombinant HIV-1 RT (Human immunodeficiency virus type 1 group M subtype B, UniProt P04585). Description: HIV-1 RT inhibitory assay (ELISA RT kit, Roche). The note with it: IC50 (effective concentration that inhibits 50% of HIV-1 RT), mean of two independent experiments.

Where “and” joins values, the source holds several entries; their conditions need not be identical. Equal entries are not always repeated.

Procedure for recombinant HIV-1 RT: HIV-1 reverse transcriptase (RT) activity was measured using a commercially available ELISA RT kit (Roche) according to the instructions of the manufacturer. The compounds were incubated with DIG-labeled reaction mixture at 37 °C for 2 h, then anti-DIG-POD solution was added, followed by substrate ABTS.

Turning to `CC(C)=CCOc1c(CC=C(C)C)c(=O)[nH]c2ccccc12` [Compound 3], the IC50 in test [1] was 8 µM.

Take `O=c1cc(Sc2ccccc2)c2cc(Cl)ccc2[nH]1` [Compound 4a1, 6-Chloro-4-(phenylthio)quinolin-2(1H)-one]: the IC50 at recombinant HIV-1 RT stood at 5.6 µM.

For the molecule `Cc1cc(C)cc(Sc2cc(=O)[nH]c3ccc(Cl)cc23)c1` [Compound 4a2, 6-Chloro-4-(3,5-dimethylphenylthio)quinolin-2(1H)-one], the IC50 at recombinant HIV-1 RT stood at 0.21 µM. Consider `Cc1cc(C)cc(Sc2cc(=O)[nH]c3ccccc23)c1` [Compound 4a3, 4-(3,5-dimethylphenylthio)quinolin-2(1H)-one], for which, on recombinant HIV-1 RT, the IC50 was 13 µM and 18 µM. On the same count and under the same terms, with `O=c1cc([S+]([O-])c2ccccc2)c2cc(Cl)ccc2[nH]1` (stereo not shown) [Compound 4b1, 6-Chloro-4-(phenylsulfinyl)quinolin-2(1H)-one] the figure was 8.9 µM. Still for that read-out and setting: with `Cc1cc(C)cc([S+]([O-])c2cc(=O)[nH]c3ccc(Cl)cc23)c1` (stereo not shown) [Compound 4b2, 6-Chloro-4-(3,5-dimethylphenylsulfinyl)quinolin-2(1H)-one] the figure was 2.6 µM; with `O=c1cc(S(=O)(=O)c2ccccc2)c2cc(Cl)ccc2[nH]1` [Compound 4c1, 6-Chloro-4-(phenylsulfonyl)quinolin-2(1H)-one], 49 µM; with `Cc1cc(C)cc(S(=O)(=O)c2cc(=O)[nH]c3ccc(Cl)cc23)c1` [Compound 4c2, 6-Chloro-4-(3,5-dimethylphenylsulfonyl)quinolin-2(1H)-one], 10 µM.

As to `O=c1cc(Oc2ccccc2)c2cc(Cl)ccc2[nH]1` [Compound 4d1, 6-Chloro-4-phenoxyquinolin-2(1H)-one], the IC50 on recombinant HIV-1 RT is 3 µM. On the same count and under the same terms, the same measure for `Cc1cc(C)cc(Oc2cc(=O)[nH]c3ccc(Cl)cc23)c1` [Compound 4d2, 6-Chloro-4-(3,5-dimethylphenoxy)quinolin-2(1H)-one]: 0.15 µM; for `O=c1cc(-c2ccccc2)c2cc(Cl)ccc2[nH]1` [Compound 5a, 6-Chloro-4-phenylquinolin-2(1H)-one]: more than 100 µM. Same read-out and setting: with `O=c1cc(-c2ccccc2F)c2cc(Cl)ccc2[nH]1` [Compound 5b, 6-Chloro-4-(2-fluorophenyl)quinolin-2(1H)-one] the figure was more than 100 µM; with `O=c1cc(-c2ccccc2Cl)c2cc(Cl)ccc2[nH]1` [Compound 5c, 6-Chloro-4-(2-chlorophenyl)quinolin-2(1H)-one], more than 100 µM.
